Results: ChEMBL document CHEMBL1157483, “Discovery of potent, orally active benzimidazole glucagon receptor antagonists” (Bioorg Med Chem Lett, 2008)
pIC50: −log10 of the molar value. Values belong to the molecule of their own block, whether it stands above or below them. Calls of active or inactive are those of the source. The calls are words filed in the database; no cut-off is given here.

Assays:
[1] = biological target: Glucagon-like peptide 1 receptor, Homo sapiens (UniProt P43220); experiment: Binding affinity against human GLP1
Chain of Glucagon-like peptide 1 receptor, Homo sapiens (P43220 whole entry, looked up): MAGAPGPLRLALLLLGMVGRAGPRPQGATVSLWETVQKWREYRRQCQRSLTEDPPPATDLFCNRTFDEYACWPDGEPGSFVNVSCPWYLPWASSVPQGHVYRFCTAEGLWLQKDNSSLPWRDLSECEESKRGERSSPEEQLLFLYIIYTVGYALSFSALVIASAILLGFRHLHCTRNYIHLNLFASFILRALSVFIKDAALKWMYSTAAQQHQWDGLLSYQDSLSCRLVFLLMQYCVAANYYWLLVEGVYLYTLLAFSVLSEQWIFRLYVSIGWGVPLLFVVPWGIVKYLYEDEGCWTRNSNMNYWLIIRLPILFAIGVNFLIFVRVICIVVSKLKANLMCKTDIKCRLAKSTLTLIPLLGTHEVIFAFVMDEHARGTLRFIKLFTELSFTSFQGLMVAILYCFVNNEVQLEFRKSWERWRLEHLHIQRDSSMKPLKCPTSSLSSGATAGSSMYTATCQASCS

Homo sapiens [2] = species on record: Homo sapiens; experiment: Selectivity for human glucagon receptor over human GIP
Homo sapiens [3] = species on record: Homo sapiens; experiment: Selectivity for human glucagon receptor over human GLP1
Glucagon receptor [4] = biological target: T1, Glucagon receptor (Homo sapiens, UniProt P47871); experiment: Antagonist activity against human GCGR expressed in CHO cells assessed as glucagon-induced cAMP accumulation; format: functional, cell-based
T1 sequence (P47871 whole entry): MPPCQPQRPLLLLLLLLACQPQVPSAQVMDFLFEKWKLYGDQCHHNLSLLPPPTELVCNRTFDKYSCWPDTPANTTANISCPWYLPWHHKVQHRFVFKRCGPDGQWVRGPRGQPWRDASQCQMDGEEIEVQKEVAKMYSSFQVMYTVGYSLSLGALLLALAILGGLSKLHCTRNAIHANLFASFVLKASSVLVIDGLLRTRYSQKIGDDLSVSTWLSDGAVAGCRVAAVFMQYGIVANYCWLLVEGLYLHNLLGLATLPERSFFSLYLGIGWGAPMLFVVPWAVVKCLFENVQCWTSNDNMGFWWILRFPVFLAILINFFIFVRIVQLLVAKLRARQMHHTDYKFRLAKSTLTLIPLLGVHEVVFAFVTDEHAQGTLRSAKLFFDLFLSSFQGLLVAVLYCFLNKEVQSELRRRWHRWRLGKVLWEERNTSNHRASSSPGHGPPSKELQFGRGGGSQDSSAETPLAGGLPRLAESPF

[5] = biological target: T2, Gastric inhibitory polypeptide receptor (Homo sapiens, UniProt P48546); experiment: Binding affinity against human GIP
T2 sequence (P48546 whole entry): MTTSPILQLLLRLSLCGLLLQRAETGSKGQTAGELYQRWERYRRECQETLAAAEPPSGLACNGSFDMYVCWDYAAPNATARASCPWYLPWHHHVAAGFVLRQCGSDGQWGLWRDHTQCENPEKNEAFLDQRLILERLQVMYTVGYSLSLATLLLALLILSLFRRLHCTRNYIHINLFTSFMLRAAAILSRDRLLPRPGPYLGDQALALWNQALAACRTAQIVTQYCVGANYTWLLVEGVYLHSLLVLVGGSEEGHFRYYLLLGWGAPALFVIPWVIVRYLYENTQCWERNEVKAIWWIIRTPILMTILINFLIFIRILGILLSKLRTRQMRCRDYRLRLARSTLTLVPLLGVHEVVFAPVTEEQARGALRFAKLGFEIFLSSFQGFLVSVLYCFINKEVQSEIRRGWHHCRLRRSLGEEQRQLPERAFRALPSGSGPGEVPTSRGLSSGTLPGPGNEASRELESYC

Glucagon receptor [6] = biological target: T1, Glucagon receptor; experiment: Displacement of [125I]glucagon from human GCGR expressed in CHO cells; format: cell-based
[7] = Clearance in mouse at 1 mg/kg, iv and 2 mg/kg, po; format: ADME, organism-based; conditions: in vivo
[8] = Half life in mouse at 1 mg/kg, iv and 2 mg/kg, po; format: ADME, organism-based; conditions: in vivo
[9] = Half life in rat at 1 mg/kg, iv and 2 mg/kg, po; format: ADME, organism-based; conditions: in vivo
[10] = Clearance in rat at 1 mg/kg, iv and 2 mg/kg, po; format: ADME, organism-based; conditions: in vivo
[11] = Oral bioavailability in mouse at 2 mg/kg; format: ADME, organism-based; conditions: in vivo
[12] = Volume of distribution at steady state in rat at 1 mg/kg, iv and 2 mg/kg, po; format: ADME, organism-based; conditions: in vivo, read-out: Vdss
[13] = Volume of distribution at steady state in mouse at 1 mg/kg, iv and 2 mg/kg, po; format: ADME, organism-based; conditions: in vivo, read-out: Vdss
[14] = Oral bioavailability in rat at 2 mg/kg; format: ADME, organism-based; conditions: in vivo
[15] = Clearance in dog at 0.25 mg/kg, iv and 1 mg/kg, po; format: ADME, organism-based, Canis lupus familiaris; conditions: in vivo
[16] = Half life in dog at 0.25 mg/kg, iv and 1 mg/kg, po; format: ADME, organism-based, Canis lupus familiaris; conditions: in vivo
[17] = biological target: Voltage-gated inwardly rectifying potassium channel KCNH2 (Homo sapiens, UniProt Q12809); experiment: Inhibition of hERG potassium channel; format: toxicity
Chain of Voltage-gated inwardly rectifying potassium channel KCNH2 (Q12809 whole entry): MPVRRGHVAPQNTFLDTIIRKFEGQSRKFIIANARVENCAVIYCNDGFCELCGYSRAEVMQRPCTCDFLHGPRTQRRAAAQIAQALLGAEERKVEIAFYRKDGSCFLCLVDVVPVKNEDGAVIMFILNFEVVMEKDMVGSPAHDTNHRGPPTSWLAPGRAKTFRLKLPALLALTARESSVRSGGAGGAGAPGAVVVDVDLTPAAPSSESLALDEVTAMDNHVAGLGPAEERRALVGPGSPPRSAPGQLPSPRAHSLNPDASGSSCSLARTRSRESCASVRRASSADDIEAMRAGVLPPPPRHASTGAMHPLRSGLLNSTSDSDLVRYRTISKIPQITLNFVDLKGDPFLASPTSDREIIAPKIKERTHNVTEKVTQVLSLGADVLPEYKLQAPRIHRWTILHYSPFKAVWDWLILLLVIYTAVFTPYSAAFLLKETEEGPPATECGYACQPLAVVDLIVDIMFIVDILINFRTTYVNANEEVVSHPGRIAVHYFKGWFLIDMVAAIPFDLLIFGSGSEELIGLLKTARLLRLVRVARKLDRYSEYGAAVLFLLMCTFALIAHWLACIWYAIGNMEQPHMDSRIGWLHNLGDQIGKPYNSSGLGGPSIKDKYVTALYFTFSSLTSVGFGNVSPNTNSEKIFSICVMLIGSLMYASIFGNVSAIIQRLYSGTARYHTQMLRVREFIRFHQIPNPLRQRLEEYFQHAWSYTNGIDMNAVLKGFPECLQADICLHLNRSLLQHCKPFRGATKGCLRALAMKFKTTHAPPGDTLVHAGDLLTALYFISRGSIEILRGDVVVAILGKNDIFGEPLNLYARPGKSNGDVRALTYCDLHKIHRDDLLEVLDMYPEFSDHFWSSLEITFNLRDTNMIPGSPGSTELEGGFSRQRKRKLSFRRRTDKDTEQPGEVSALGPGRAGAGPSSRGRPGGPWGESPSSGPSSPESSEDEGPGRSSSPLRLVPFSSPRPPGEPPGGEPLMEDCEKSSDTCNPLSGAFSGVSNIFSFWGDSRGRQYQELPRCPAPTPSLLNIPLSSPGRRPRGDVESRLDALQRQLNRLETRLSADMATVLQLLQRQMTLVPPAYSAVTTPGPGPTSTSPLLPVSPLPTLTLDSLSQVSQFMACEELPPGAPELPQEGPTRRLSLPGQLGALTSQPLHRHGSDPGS

[18] = Antagonist activity against rhesus monkey glucagon receptor assessed as cAMP accumulation; format: functional, Macaca mulatta
[19] = Oral bioavailability in rhesus monkey at 2 mg/kg; format: ADME, organism-based, Macaca mulatta; conditions: in vivo
[20] = Volume of distribution at steady state in rhesus monkey at 0.5 mg/kg, iv and 2 mg/kg, po; format: ADME, organism-based, Macaca mulatta; conditions: in vivo, read-out: Vdss
Cytochrome P450 2D6 = Cytochrome P450 2D6 (Homo sapiens, UniProt P10635); experiment: Inhibition of CYP2D6; format: ADME
Chain of Cytochrome P450 2D6 (P10635 whole entry): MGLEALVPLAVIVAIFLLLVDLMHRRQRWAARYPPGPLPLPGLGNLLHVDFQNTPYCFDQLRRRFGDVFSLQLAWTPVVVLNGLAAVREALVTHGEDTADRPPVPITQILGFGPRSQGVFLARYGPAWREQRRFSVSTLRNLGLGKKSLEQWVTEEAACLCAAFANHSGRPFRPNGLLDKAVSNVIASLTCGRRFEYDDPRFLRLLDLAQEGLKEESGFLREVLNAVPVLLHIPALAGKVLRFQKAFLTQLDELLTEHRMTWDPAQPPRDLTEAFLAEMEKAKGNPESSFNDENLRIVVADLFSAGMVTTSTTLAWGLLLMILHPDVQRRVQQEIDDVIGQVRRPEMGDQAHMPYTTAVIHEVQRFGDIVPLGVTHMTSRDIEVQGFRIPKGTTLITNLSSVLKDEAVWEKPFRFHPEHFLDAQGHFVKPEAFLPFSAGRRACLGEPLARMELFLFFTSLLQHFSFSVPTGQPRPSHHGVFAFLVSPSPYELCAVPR

[21] = Volume of distribution at steady state in dog at 0.25 mg/kg, iv and 1 mg/kg, po; format: ADME, organism-based, Canis lupus familiaris; conditions: in vivo, read-out: Vdss
Cytochrome P450 3A4 = Cytochrome P450 3A4 (Homo sapiens, UniProt P08684); experiment: Inhibition of CYP3A4; format: ADME
Chain of Cytochrome P450 3A4 (P08684 whole entry): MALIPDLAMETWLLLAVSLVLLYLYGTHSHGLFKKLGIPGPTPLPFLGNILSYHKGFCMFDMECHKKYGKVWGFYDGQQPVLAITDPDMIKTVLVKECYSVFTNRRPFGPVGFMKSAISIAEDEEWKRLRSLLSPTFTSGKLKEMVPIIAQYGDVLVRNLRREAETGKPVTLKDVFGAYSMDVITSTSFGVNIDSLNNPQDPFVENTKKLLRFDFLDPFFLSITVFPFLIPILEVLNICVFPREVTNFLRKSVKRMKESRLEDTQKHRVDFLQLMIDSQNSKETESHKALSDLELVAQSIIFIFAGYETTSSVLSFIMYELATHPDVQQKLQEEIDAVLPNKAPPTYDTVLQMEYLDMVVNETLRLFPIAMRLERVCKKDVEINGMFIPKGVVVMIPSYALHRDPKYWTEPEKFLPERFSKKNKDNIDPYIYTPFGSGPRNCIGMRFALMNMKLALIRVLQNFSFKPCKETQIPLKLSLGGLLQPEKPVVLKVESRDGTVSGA

Cytochrome P450 2C9 = Cytochrome P450 2C9 (Homo sapiens, UniProt P11712); experiment: Inhibition of CYP2C9; format: ADME
Chain of Cytochrome P450 2C9 (P11712 whole entry): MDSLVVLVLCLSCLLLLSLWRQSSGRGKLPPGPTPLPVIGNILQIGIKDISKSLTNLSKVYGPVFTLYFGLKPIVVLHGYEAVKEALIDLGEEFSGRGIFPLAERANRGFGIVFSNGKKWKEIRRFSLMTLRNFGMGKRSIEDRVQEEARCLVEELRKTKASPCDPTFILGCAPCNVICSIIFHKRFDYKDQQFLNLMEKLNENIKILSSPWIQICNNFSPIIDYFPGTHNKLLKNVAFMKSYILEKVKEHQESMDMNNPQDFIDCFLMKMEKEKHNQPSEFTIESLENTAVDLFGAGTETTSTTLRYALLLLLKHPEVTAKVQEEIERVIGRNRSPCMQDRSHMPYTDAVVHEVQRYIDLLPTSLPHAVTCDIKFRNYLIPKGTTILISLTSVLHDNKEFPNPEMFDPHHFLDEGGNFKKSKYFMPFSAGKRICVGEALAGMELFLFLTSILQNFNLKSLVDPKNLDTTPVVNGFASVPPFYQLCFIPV

[22] = Oral bioavailability in dog at 1 mg/kg; format: ADME, organism-based, Canis lupus familiaris; conditions: in vivo
Rhesus monkey [23] = experiment: Inhibition of glucagon-dependent glucose excursion in rhesus monkey at 10 mg/kg, po; format: functional, organism-based; parameters: dose 10 mg/kg; conditions: Macaca mulatta
Mus musculus [24] = experiment: Reduction of glucose level in po dosed fat diet-induced diabetic mouse transgenic model expressing human glucagon receptor administered for 10 days; format: functional, organism-based
Rhesus monkey [25] = experiment: Inhibition of glucagon-dependent glucose excursion in rhesus monkey at 3 mg/kg, po; format: functional, organism-based; parameters: dose 3 mg/kg; conditions: Macaca mulatta
Mus musculus [26] = experiment: Inhibition of glucagon-dependent glucose excursion in transgenic mouse expressing human glucagon receptor at 3 to 30 mg/kg, po; format: functional, organism-based
[27] = Clearance in rhesus monkey at 0.5 mg/kg, iv and 2 mg/kg, po; format: ADME, organism-based, Macaca mulatta; conditions: in vivo
[28] = Half life in rhesus monkey at 0.5 mg/kg, iv and 2 mg/kg, po; format: ADME, organism-based, Macaca mulatta; conditions: in vivo

pIC50 [1]: 5.30
Selectivity ratio (Homo sapiens [2]): > 50
Selectivity ratio (Homo sapiens [3]): > 50
pIC50 (Glucagon receptor [4]): 8.10
pIC50 [5]: 5.31
pIC50 (Glucagon receptor [6]): 9.00
Compound: CCCOc1ccc2nc(N(Cc3ccc(C(=O)Nc4nnn[nH]4)cc3)[C@H]3CC[C@H](C(C)(C)C)CC3)n(C)c2c1

pIC50 (Glucagon receptor [4]): < 6.00
pIC50 (Glucagon receptor [6]): 8.00
Compound: Cc1ccc2[nH]c(N(Cc3ccc(C(=O)Nc4nnn[nH]4)cc3)[C@H]3CC[C@H](C(C)(C)C)CC3)nc2c1

pIC50 (Glucagon receptor [6]): 7.49
Compound: CC(C)(C)[C@H]1CC[C@@]2(CCN(c3ccc(OC(F)(F)F)cc3)C(=O)N2Cc2ccc(C(=O)Nc3nnn[nH]3)cc2)CC1

pIC50 (Glucagon receptor [6]): 7.62
Compound: CCCn1c(N(Cc2ccc(C(=O)Nc3nnn[nH]3)cc2)[C@H]2CC[C@H](C(C)(C)C)CC2)nc2ccccc21

pIC50 (Glucagon receptor [4]): 6.09
pIC50 (Glucagon receptor [6]): 7.51
Compound: Cn1c(N(Cc2ccc(C(=O)Nc3nnn[nH]3)cc2)c2ccc(C(C)(C)C)cc2)nc2ccccc21

Selectivity ratio (Homo sapiens [2]): > 50
Selectivity ratio (Homo sapiens [3]): > 50
pIC50 (Glucagon receptor [4]): 7.74
pIC50 [5]: < 5.00
pIC50 (Glucagon receptor [6]): 8.22
Compound: Cc1cc2nc(N(Cc3ccc(C(=O)Nc4nnn[nH]4)cc3)[C@H]3CC[C@H](C(C)(C)C)CC3)n(C)c2cc1C

clearance [7]: 10 mL/min/kg
pIC50 [1]: 5.30
Selectivity ratio (Homo sapiens [2]): > 50
Selectivity ratio (Homo sapiens [3]): > 50
half-life [8]: 3.2 h
half-life [9]: 2.9 h
clearance [10]: 13 mL/min/kg
pIC50 (Glucagon receptor [4]): 8.05
bioavailability [11]: 2%
Vd [12]: 0.6 L/kg
Vd [13]: 0.5 L/kg
pIC50 [5]: 5.70
pIC50 (Glucagon receptor [6]): 9.00
bioavailability [14]: 5%
Compound: Cn1c(N(Cc2ccc(C(=O)Nc3nnn[nH]3)cc2)[C@H]2CC[C@H](C(C)(C)C)CC2)nc2cc(OC3CCCC3)ccc21

pIC50 [1]: 5.12
Selectivity ratio (Homo sapiens [2]): > 50
Selectivity ratio (Homo sapiens [3]): > 50
pIC50 (Glucagon receptor [4]): 7.66
pIC50 [5]: 5.55
pIC50 (Glucagon receptor [6]): 8.70
Compound: CCOc1ccc2c(c1)nc(N(Cc1ccc(C(=O)Nc3nnn[nH]3)cc1)[C@H]1CC[C@H](C(C)(C)C)CC1)n2C

pIC50 [1]: 5.23
Selectivity ratio (Homo sapiens [2]): > 50
Selectivity ratio (Homo sapiens [3]): > 50
pIC50 (Glucagon receptor [4]): 7.42
pIC50 [5]: 5.60
pIC50 (Glucagon receptor [6]): 8.40
Compound: COc1ccc2c(c1)nc(N(Cc1ccc(C(=O)Nc3nnn[nH]3)cc1)[C@H]1CC[C@H](C(C)(C)C)CC1)n2C

clearance [15]: 3.8 mL/min/kg
clearance [7]: 4 mL/min/kg
pIC50 [1]: 5.17
half-life [16]: 2.1 h
pIC50 [18]: 6.95
Selectivity ratio (Homo sapiens [2]): > 50
bioavailability [19]: 23%
Vd [20]: 0.8 L/kg
Selectivity ratio (Homo sapiens [3]): > 50
half-life [8]: 1.9 h
pIC50 (Cytochrome P450 2D6): < 5.00
half-life [9]: 1.6 h
Vd [21]: 0.5 L/kg
clearance [10]: 12 mL/min/kg
pIC50 (Cytochrome P450 3A4): < 5.00
pIC50 (Cytochrome P450 2C9): < 5.00
pIC50 (Glucagon receptor [4]): 7.21
bioavailability [22]: 27%
bioavailability [11]: 2%
Vd [12]: 0.74 L/kg
Vd [13]: 0.33 L/kg
pIC50 [5]: 5.22
Activity (Mus musculus [24]): Dose-dependent effect
pIC50 (Glucagon receptor [6]): 7.96
clearance [27]: 16 mL/min/kg
half-life [28]: 2.4 h
bioavailability [14]: 5%
Compound: Cn1c(N(Cc2ccc(C(=O)Nc3nnn[nH]3)cc2)[C@H]2CC[C@H](C(C)(C)C)CC2)nc2cc(C(F)(F)F)ccc21
pIC50 [17]: < 5.00
Activity (Rhesus monkey [23]): Active
Activity (Rhesus monkey [25]): Active
Activity (Mus musculus [26]): Active

pIC50 (Glucagon receptor [4]): < 6.00
pIC50 (Glucagon receptor [6]): 7.89
Compound: Cc1ccc2[nH]c(N(Cc3ccc(C(=O)Nc4nnn[nH]4)cc3)c3ccc(Oc4ccc(Cl)cc4)c(Cl)c3)nc2c1

Selectivity ratio (Homo sapiens [2]): > 50
Selectivity ratio (Homo sapiens [3]): > 50
pIC50 (Glucagon receptor [4]): < 6.00
pIC50 [5]: < 6.00
pIC50 (Glucagon receptor [6]): 8.70
Compound: Cn1c(N(Cc2ccc(C(=O)Nc3nnn[nH]3)cc2)[C@H]2CC[C@H](C(C)(C)C)CC2)nc2cc(O)ccc21

Selectivity ratio (Homo sapiens [2]): > 50
Selectivity ratio (Homo sapiens [3]): > 50
pIC50 (Glucagon receptor [4]): 6.67
pIC50 [5]: < 6.00
pIC50 (Glucagon receptor [6]): 8.40
Compound: COc1ccc2nc(N(Cc3ccc(C(=O)Nc4nnn[nH]4)cc3)[C@H]3CC[C@H](C(C)(C)C)CC3)n(C)c2c1
